Laboratory results as given in patent US20030091533A1, “Regulation of mononuclear phagocyte stimulation” (priority 2001, published 2003).

Key:
Format in all cases: cell-based, human
LPS-stimulated PBM [1] = test: Intracellular oxidative burst, DCFH oxidation assay, PBM; conditions: for oxidative burst in LPS-stimulated PBM with IFN-γ: preincubated 24 hour with cytokine 20 ng/ml in the presence of IFN-γ 200 U/ml, LPS 1 μg/ml 20 hour; for LPS-stimulated oxidative burst in PBM: preincubation 24 hour with cytokine 20 ng/ml, then LPS 1 μg/ml 20 hour, without IFN-γ; for Oxidative burst (nmoles DCF/mg protein): LPS 1 μg/ml 20 h
Description: Intracellular oxidative capacity was assessed essentially as described by Bass et al., J. Immunol., 130:1910-1917 (1983) (incorporated herein by reference) as described infra.
Cells (0.2×10^6) were preincubated for 24 hour with IL-9 or IL-4 (20 ng/ml) in the presence of IFN-γ (200 U/ml) before stimulation for 20 hour with LPS (1 μg/ml). The intracellular oxidative capacity was measured through the DCFH oxidation assay as describe herein. FIG. 3 depicts the effect of IFN-γ on the inhibition mediated by IL-9 and IL-4 on the oxidative burst in LPS-stimulated PBM (A) and AM (B).
Table 1. Specific blockade of the IL-9 inhibitory effect on oxidative burst in LPS-15 stimulated PBM and AM by anti-hIL-9R mAb. Cells (0.2×10^6) were preincubated with neutralizing mAb against hIL-9R (AH9R7, 10 μg/ml), or with control mIgG2b (10 μg/ml), 1 hour before incubation with IL-9 (20 ng/ml) for 24 hour without removing mAb, and stimulated by LPS (1 μg/ml) for 20 h. Intracellular oxidative capacity was evaluated by the DCFH oxidation assay. Data are means±SEM obtained from three experiments, triplicate conditions being performed in each experiment. *P<0.001 compared with cells preincubated with IL-9 (with or without control mIgG2b).
Cells (0.2×10^6) were preincubated with neutralizing mAb, either against TGF-β1 (30 μg/ml) or against IL-10Rβ (30 μg/ml) or with control mIgG1 (30 μg/ml), 2 hour before incubation with IL-9 (20 ng/ml) for 24 hour without removing the mAb, and stimulated with LPS (1 μg/ml) for 20 h. Intracellular oxidative capacity was evaluated by the DCFH oxidation assay.
Intracellular oxidative capacity was assessed as described by Bass et al., (Bass et al., J. Immunol. 130:1910-1917 (1983)). Briefly, the PBM and AM samples were distributed in 96-well plates with flat bottoms (Falcon) to provide 0.2×10^6cells/well. The cells were preincubated for 24 hour at 37° C., 5% CO2 with cytokines (200 u/ml for IFN-y, 20 ng/ml for IL-9 and 20 ng/ml; for IL-4) in cRPMI before being stimulated for 20 hours with LPS (1 μg/ml) without removing the cytokines. At the end of incubation with cytokines and/or LPS, cells were loaded for 15 min with 15 μM DCFH-DA in cRPMI which, after passive penetration into cells, is hydrolyzed into nonfluorescent polar DCFH and trapped inside the cells. DCFH is then oxidized into highly fluorescent DCF according to the intracellular amount of hydrogen peroxide (H2O2) produced by the respiratory burst. After three washings with phosphate-buffered saline (PBS, pH 7.4), cells were lysed in 0.1% v/v Triton X100 (Sigma) in PBS, and fluorescence was quantified in a computerized microplate spectrofluorimeter (Packard Instruments, Downers Grove, Ill., USA) at 485 nm excitation/530 nm emission wavelengths. DCF concentrations were deduced from a standard curve of known concentrations of fluorescent DCF (ranging from 0.08 to 10 μM in lysis buffer) Results were corrected for total protein concentration determined in cell lysates by the bicinchoninic acid-based method (Pierce, Rockford, Ill., USA), and were expressed as nmoles DCF/mg cell protein.

LPS-stimulated PBM [2] = test: TGF-β1 release by ELISA, PBM; conditions: for potentiation of TGF-β1 production by LPS-stimulated PBM: preincubated 24 hour
Description: (§1) FIG. 6 depicts the effect of IL-9, IL-4 and IFN-γ on the release of IL-10 (A) and TGF-β1 (B) by LPS-stimulated PBM and AM cultured under the same conditions as described in FIG. 5 Example I. D. TGF-β1 was determined by ELISA in crude supernatants (untreated supernatants) and in ethanol-acid (acid-treated) supernatants, using a kit from Biosource for determining TGF-β1 release from its latent complexes. An ELISA kit from CLB (Amsterdam, The Netherlands) was used to determine IL-10 following the manufacturer's protocol. […] Data are means±SEM (n=3). *P<0.05 compared with unstimulated cells; **P<0.05 compared with cells preincubated with medium.
(§2) Cells (1×10^6 PBM or 0.5×10^6 AM/well) were distributed in 24-well plates (Falcon), preincubated in cRPMI for 24 hours at 37° C., 5% CO2 with cytokines (IL-9, IL-4 (20 ng/ml) and IFN-γ (200 U/ml)) and stimulated for 20 hours with 1 μg/ml LPS without removing cytokines. Supernatants were harvested and frozen at −20° C. until cytokine titration. Release of TNF-α was quantified by a cytotoxicity bioassay using WEHI 164 cells clone 13, as previously described (Espevik and Nissen-Meyer, J. Immunol. Methods, 95:99-105 (1986) incorporated herein by reference), using rhTNF-α from Boehringer as a standard. IL-8, IL-10 and TGF-β1 concentrations were determined by ELISA. A kit from CLB (Amsterdam, The Netherlands) was used for IL-10 quantitation, following the manufacturer's protocol. A kit from Biosource allowed to determine TGF-β1 after the release from its latent complexes by a treatment of supernatants with ethanol acid (‘acid-treated supernatants’); TGF-P 1 was also assessed in crude supernatants (‘untreated supernatants’). To assay for IL-8, 96-well plates were coated overnight at 4° C. with 4 μg/ml anti-hIL-8 mAb (Sigma, clone 6217.11) in 100 mM sodium carbonate buffer (pH 9.6). After washings in PBS containing 0.1% v/v Tween 20 and blocking for 1 hour at 37° C. with 1% w/v BSA in the same buffer, rhIL-8 standards (Biosource International) and supernatants were incubated for 2 hour at 37° C. Plates were then incubated with 20 ng/ml biotinylated polyclonal anti-hIL-8 Ab (R§D Systems) in blocking buffer and, after washings, with HRP-conjugated streptavidin (Sigma). The reaction was then developed in 0.03% v/v H2O2 substrate and 0.42 mM 3,3′,5,5′-tetramethylbenzidine as chromogen in 100 mM sodium acetate/citric acid buffer (pH 4.9), stopped with 2 M H2SO4, and read in a plate spectrometer at 450 nm. The sensitivity of the TNF-α bioassay was 0.2 pg/ml, and that of IL-8, IL-10, and TGF-β1 immunoassays 10 pg/ml, 2 pg/ml, and 2 pg/ml, respectively. All supernatants were assayed in duplicate.

LPS-stimulated PBM [3] = test: IL-10 release by ELISA, PBM; conditions: for IL-10 release by LPS-stimulated PBM: preincubated 24 hour, LPS 20 h
Description: as §1
as §2, with “After washings in PBS containing 0.1% v/v Tween 20 and blocking for 1 hour at 37° C. with 1% w/v BSA in the same buffer, rhIL-8 standards (Biosource International) and supernatants were incubated for 2 hour at 37° C. Plates were then incubated with 20 ng/ml biotinylated polyclonal anti-hIL-8 Ab (R§D Systems) in blocking buffer and, after washings, with HRP-conjugated streptavidin (Sigma).” left out, “The sensitivity of the TNF-α bioassay was 0.2 pg/ml, and that of IL-8, IL-10, and TGF-β1 immunoassays 10 pg/ml, 2 pg/ml, and 2 pg/ml, respectively. All supernatants were assayed in duplicate.” left out

For “IL-4: Th2 cytokine interleukin-4 used as comparator, 20 ng/ml”, the “oxidative burst in LPS-stimulated PBM with IFN-γ” value (LPS-stimulated PBM [1]) was 19.6±2.2 nmoles DCF/mg protein, the “LPS-stimulated oxidative burst in PBM” value (LPS-stimulated PBM [1]) was 9.4±0.6 nmoles DCF/mg protein and the “potentiation of TGF-β1 production by LPS-stimulated PBM” value (LPS-stimulated PBM [2]; LPS 20 h) was “not observed”. The “IL-10 release by LPS-stimulated PBM” value (LPS-stimulated PBM [3]) was “inhibited”.

In the case of “IL-9: Human IL-9 purified from SF9 insect cell cultures infected with recombinant baculovirus”, the “Oxidative burst (nmoles DCF/mg protein)” value (LPS-stimulated PBM [1]; Table 1, PBM, mAb 10 μg/ml 1 hour before IL-9 20 ng/ml 24 hour, means±SEM, medium 10.1 ± 0.4) is reported as 10.7 ± 0.5 nmoles DCF/mg protein, the “Oxidative burst (nmoles DCF/mg protein)” value (LPS-stimulated PBM [1]; Table 3, PBM, mAb 30 μg/ml 2 hour before IL-9 20 ng/ml 24 hour, means±SD, Medium 10.3 ± 0.2) is reported as 10.8 ± 0.6 nmoles DCF/mg protein and the “oxidative burst in LPS-stimulated PBM with IFN-γ” value (LPS-stimulated PBM [1]) is reported as 10.5±2.1 nmoles DCF/mg protein. The “LPS-stimulated oxidative burst in PBM” value (LPS-stimulated PBM [1]) was 10.7±0.5 nmoles DCF/mg protein, the “production of TGF-β1 by LPS-stimulated PBM” value (LPS-stimulated PBM [2]; acid-treated supernatants, preincubated 24 hour 20 ng/ml, LPS 20 h, medium-preincubated 586±64) was 1687 ± 94 pg/mL and the “modulation of TGF-β1 in unstimulated PBM” value (LPS-stimulated PBM [2]; without LPS) was “no modulation”. For the same molecule, the “LPS-induced IL-10 release by PBM” value (LPS-stimulated PBM [3]; preincubated 24 hour 20 ng/ml, LPS 1 μg/ml 20 h, medium-preincubated 217.8±25.8) was 119.7 ± 8.7 pg/mL.

B1: IFN-γ: Interferon gamma, primes mononuclear phagocytes, 200 U/ml (protein, UniProt P01579 24-161, looked up)
Interferon gamma: QDPYVKEAENLKKYFNAGHSDVADNGTLFLGILKNWKEESDRKIMQSQIVSFYFKLFKNFKDDQSIQKSVETIKEDMNVKFFNSNKKKRDDFEKLTNYSVTDLNVQRKAIHELIQVMAELSPAAKTGKRKRSQMLFRG
B1 was tested, and the “effect on LPS-stimulated oxidative burst in PBM” value (LPS-stimulated PBM [1]; preincubation 24 hour, LPS 20 hour) was “slightly increased”, the “potentiation of TGF-β1 production by LPS-stimulated PBM” value (LPS-stimulated PBM [2]; LPS 20 h) was “not observed” and the “IL-10 release by LPS-stimulated PBM” value (LPS-stimulated PBM [3]) was “decreased”.
